Marks after values point to notes of the source that are not given here.

One series in a line: logP determination via retention times, calibrated with unbranched alkan-2-ones. The format is physicochemical. The note with it: HPLC on reversed-phase C 18, method **: 43° C.; 0.1% aqueous phosphoric acid and acetonitrile; linear gradient 10% to 95% acetonitrile.
As to `CC(=O)Nc1cc(Nc2ncc(C(F)(F)F)c(NC3CC3)n2)ccc1C` [compound 662], the logP is reported as 1.82**.
`COc1cc(Nc2ncc(C(F)(F)F)c(NC3CC3)n2)cc(OC)c1OC` [compound 719]: the logP is reported as 2.56**.

Staying with this series, now noted: HPLC on reversed-phase C18, method *: 40° C., 0.1% aqueous formic acid and acetonitrile, linear gradient 10% to 95% acetonitrile.
As to `CC(=O)Nc1cc(Nc2ncc(C(F)(F)F)c(NC3CC3)n2)ccc1C` [compound 662], the logP is 1.71*;.
For `CC(C)C(=O)Nc1ccc(Nc2ncc(C(F)(F)F)c(NC3CC3)n2)cc1` [compound 663], the logP is 2.11*.
On to `CSc1ccc(Nc2ncc(Cl)c(NC3CC3)n2)cc1N` [compound 664], for which the logP is listed as 1.69*.
With `CCC(C)Sc1cccc(Nc2ncc(Cl)c(NC3CC3)n2)c1` (stereo not drawn) [compound 665], the logP is recorded as 3.69*.
In the case of `OC(c1cccc(Nc2ncc(C(F)(F)F)c(NC3CC3)n2)c1)C(F)(F)F` (stereo not drawn) [compound 666], the logP was 2.69*.
For the compound `OC(c1cccc(Nc2ncc(C(F)(F)F)c(NCC3CC3)n2)c1)C(F)(F)F` (stereo not drawn) [compound 667], the logP was 2.82*.
On to `COc1cccc(Nc2ncc(Cl)c(NCC3CC3)n2)c1` [compound 668], for which the logP is on record as 1.97*.
As for `COc1ccc(Nc2ncc(Cl)c(NCC3CC3)n2)cc1` [compound 669], the logP is reported as 1.73*.
For the compound `CS(=O)(=O)c1ccc(Nc2ncc(Cl)c(NCC3CC3)n2)cc1` [compound 670], the logP was 1.97*.
Turning to `CC(=O)N(C)c1ccc(Nc2ncc(Cl)c(NCC3CC3)n2)cc1` [compound 671], the logP is on record as 1.58*.
On the same count and under the same terms, in the case of `O=C(Nc1ccc(Nc2ncc(Cl)c(NCC3CC3)n2)cc1)C(F)(F)F` [compound 672] it was 2.02*; in that of `CC(C)(C)NC(=O)c1ccc(Nc2ncc(Cl)c(NCC3CC3)n2)cc1` [compound 673], 2.21*.
`CSc1ccc(Nc2ncc(Cl)c(NCC3CC3)n2)cc1` [compound 674]: the logP is given as 2.18*.
Take `O=S(=O)(c1cccc(Nc2ncc(Cl)c(NCC3CC3)n2)c1)N1CCCCC1` [compound 675]: the logP is 2.16*.
Regarding `CC(C)(C)C(=O)Cc1ccc(Nc2ncc(Cl)c(NCC3CC3)n2)cc1` [compound 676], the logP is 2.39*.
For `CCC(=O)c1ccc(Nc2ncc(Cl)c(NCC3CC3)n2)cc1` [compound 677], the logP is given as 2.55*.
Regarding `CC(=O)c1ccc(Nc2ncc(Cl)c(NCC3CC3)n2)cc1` [compound 678], the logP is listed as 2.13*.
On to `CC(=O)Nc1cc(Nc2ncc(Cl)c(NCC3CC3)n2)ccc1C` [compound 679], for which the logP is 1.49*.
As to `Oc1ccc(Nc2ncc(Cl)c(NCC3CC3)n2)cc1` [compound 680], the logP is given as 1.36*.
Take `Oc1cccc(Nc2ncc(Cl)c(NCC3CC3)n2)c1` [compound 681]: the logP is listed as 1.49*.
As to `Cc1cccc(C)c1Nc1ncc(Cl)c(NCC2CC2)n1` [compound 682], the logP is 1.87*.
In the case of `FC(F)(F)c1ccc(Nc2ncc(Cl)c(NCC3CC3)n2)cc1` [compound 684], the logP is on record as 3.33*.
Turning to `N#Cc1cccc(Nc2ncc(Cl)c(NCC3CC3)n2)c1` [compound 685], the logP was 2.26*.
Turning to `COc1ccc(Nc2ncc(Cl)c(NCC3CC3)n2)cc1OC` [compound 686], the logP was 1.63*.
Regarding `COc1ccccc1Nc1ncc(Cl)c(NCC2CC2)n1` [compound 687], the logP is on record as 1.99*.
On to `FC(F)(F)Oc1ccc(Nc2ncc(Cl)c(NCC3CC3)n2)cc1` [compound 688], for which the logP was 2.95*.
Same read-out and setting: as for `Clc1cnc(Nc2ccc(-c3cscn3)cc2)nc1NCC1CC1` [compound 689], the figure is 2.06*; as for `Clc1cc(Cl)cc(Nc2ncc(Cl)c(NCC3CC3)n2)c1` [compound 690], 4.3*; as for `COC(=O)c1ccc(Nc2ncc(Cl)c(NCC3CC3)n2)cc1Cl` [compound 691], 3.1*.
The same measure, in the same setting: in the case of `CCOc1cccc(Nc2ncc(Cl)c(NCC3CC3)n2)c1` [compound 692] it was 2.21*; in that of `NS(=O)(=O)c1cc(Nc2ncc(Cl)c(NCC3CC3)n2)ccc1Cl` [compound 693], 1.83*; in that of `Oc1ccc(Nc2ncc(Cl)c(NCC3CC3)n2)c(F)c1` [compound 694], 1.46*.
Same read-out and setting: as for `Clc1cnc(Nc2ccc3c(c2)OCO3)nc1NCC1CC1` [compound 695], the figure is 1.75*.
As to `O=C(c1ccc(Nc2ncc(Cl)c(NCC3CC3)n2)cc1)N1CCOCC1` [compound 696], the logP is on record as 1.59*.
On to `CS(=O)(=O)Nc1ccc(Nc2ncc(Cl)c(NCC3CC3)n2)cc1` [compound 697], for which the logP is 1.51*.
`CC(C)(C)NC(=O)Cc1cccc(Nc2ncc(Br)c(NC3CC3)n2)c1` [compound 698]: the logP is reported as 1.94*.
On the same count and under the same terms, as for `CCCOc1cccc(Nc2ncc(C(F)(F)F)c(NC3CC3)n2)c1` [compound 699], the figure is 3.92*.
As for `COc1cc(Nc2ncc(C(F)(F)F)c(NC3CC3)n2)ccc1Cl` [compound 700], the logP is listed as 3.59*.
On to `CCN(CC)C(=O)c1cccc(Nc2ncc(Cl)c(NC3CC3)n2)c1` [compound 701], for which the logP is 1.86*.
Turning to `CCNC(=O)c1cccc(Nc2ncc(Br)c(NC3CC3)n2)c1` [compound 702], the logP is given as 1.44*.
As for `CC(Cl)c1cccc(Nc2ncc(C(F)(F)F)c(NCC3CC3)n2)c1` (stereo not drawn) [compound 703], the logP is 3.89*.
As to `O=C(c1ccc(Nc2ncc(C(F)(F)F)c(NCC3CC3)n2)cc1)N1CCCCC1` [compound 704], the logP is listed as 3.04*.
Still for that read-out and setting: in the case of `CC(O)c1cccc(Nc2ncc(C(F)(F)F)c(NCC3CC3)n2)c1` (stereo not drawn) [compound 705] it was 2.16*.
Take `CCCSc1cccc(Nc2ncc(Br)c(NC3CC3)n2)c1` [compound 706]: the logP is 3.49*.
For `CC(C)Sc1cccc(Nc2ncc(Br)c(NC3CC3)n2)c1` [compound 707], the logP was 3.38*.
Take `CCSc1cccc(Nc2ncc(Br)c(NC3CC3)n2)c1` [compound 708]: the logP was 2.92*.
Take `COCc1cccc(Nc2ncc(Cl)c(NCC3CC3)n2)c1` [compound 709]: the logP is on record as 1.82*.
On the same count and under the same terms, as for `CCC(=O)Nc1ccc(Nc2ncc(C(F)(F)F)c(NC3CC3)n2)cc1` [compound 710], the figure is 1.93*; as for `CCC(=O)Nc1ccc(Nc2ncc(Cl)c(NC3CC3)n2)cc1` [compound 711], 1.24*; as for `N#CCc1cccc(Nc2ncc(Cl)c(NC3CC3)n2)c1` [compound 712], 1.66*.
For `O=C1CCCCN1c1cccc(Nc2ncc(Cl)c(NC3CC3)n2)c1` [compound 713], the logP is given as 1.47*.
Take `Clc1cnc(Nc2cccc(-c3ccco3)c2)nc1NC1CC1` [compound 714]: the logP is 2.54*.
Regarding `C=CCOc1cccc(Nc2ncc(Cl)c(NC3CC3)n2)c1` [compound 715], the logP is 2.37*.
Take `O=CNc1cccc(Nc2ncc(Br)c(NC3CC3)n2)c1` [compound 716]: the logP is listed as 1.23*.
On the same count and under the same terms, as for `O=C(Nc1ccccc1)Nc1cccc(Nc2ncc(Cl)c(NC3CC3)n2)c1` [compound 717], the figure is 1.93*.
On to `CN(C)Cc1cccc(Nc2ncc(Cl)c(NC3CC3)n2)c1` [compound 718], for which the logP is 0.79*.
As to `Clc1cnc(Nc2cccc(-n3ccnc3)c2)nc1NC1CC1` [compound 720], the logP is 0.91*.
With `COCc1cccc(Nc2ncc(C(F)(F)F)c(NC3CC3)n2)c1` [compound 721], the logP is reported as 2.78*.
For the compound `FC(F)c1cnc(Nc2ccccc2)nc1NC1CC1` [compound 722], the logP is recorded as 1.56*.
`O=C(c1ccc(Nc2ncc(Cl)c(NC3CC3)n2)cc1)N1CCCCC1` [compound 723]: the logP is 1.97*.
On to `O=C(c1ccc(Nc2ncc(C(F)(F)F)c(NC3CC3)n2)cc1)N1CCCCC1` [compound 725], for which the logP is 2.86*.
Turning to `O=c1ccccn1-c1cccc(Nc2ncc(Cl)c(NC3CC3)n2)c1` [compound 726], the logP is 1.39*.
Take `Clc1cnc(Nc2cccc(C3CCNCC3)c2)nc1NC1CC1` [compound 727]: the logP is 0.88*.
`CCOC(=O)Nc1ccc(Nc2ncc(Br)c(NC3CC3)n2)cc1O` [compound 728]: the logP is on record as 1.53*.

The series is the same for the next values; noted with them: method **: HPLC reversed-phase C 18, temperature 43° C.; mobile phase 0.1% aqueous phosphoric acid and acetonitrile; linear gradient 10% to 95% acetonitrile.
Regarding `CNC(=O)c1ccc(Nc2ncc(C(F)(F)F)c(NC3CC3)n2)cc1` [compound 651], the logP was 1.81**.
Turning to `CNC(=O)c1cccc(Nc2ncc(C(F)(F)F)c(NC3CC3)n2)c1` [compound 652], the logP is listed as 1.78**.
Same read-out and setting: in the case of `CSc1ccc(Nc2ncc(C(F)(F)F)c(NC3CC3)n2)cc1` [compound 653] it was 3.35**; in that of `CC(=O)c1ccc(Nc2ncc(C(F)(F)F)c(NC3CC3)n2)cc1` [compound 656], 2.8**.
With `CC(=O)c1cccc(Nc2ncc(C(F)(F)F)c(NC3CC3)n2)c1` [compound 657], the logP is recorded as 2.72**.
On the same count and under the same terms, as for `CNC(=O)Oc1cccc(Nc2ncc(C(F)(F)F)c(NC3CC3)n2)c1` [compound 659], the figure is 2.13**; as for `COC(=O)Nc1cccc(Nc2ncc(C(F)(F)F)c(NC3CC3)n2)c1` [compound 660], 2.06**.

Staying with this series, now noted: method *: HPLC reversed-phase C 18, temperature 40° C.; mobile phase 0.1% aqueous formic acid and acetonitrile; linear gradient 10% to 95% acetonitrile.
On to `CC(C)(C)C(=O)Nc1cccc(Nc2ncc(C(F)(F)F)c(NC3CC3)n2)c1` [compound 650], for which the logP is recorded as 2.6*.
Take `CNC(=O)c1ccc(Nc2ncc(C(F)(F)F)c(NC3CC3)n2)cc1` [compound 651]: the logP is recorded as 1.78*;.
`CNC(=O)c1cccc(Nc2ncc(C(F)(F)F)c(NC3CC3)n2)c1` [compound 652]: the logP is on record as 1.78*;.
In the case of `CSc1ccc(Nc2ncc(C(F)(F)F)c(NC3CC3)n2)cc1` [compound 653], the logP is 3.1*;.
Still for that read-out and setting: in the case of `O=S(=O)(c1cccc(Nc2ncc(C(F)(F)F)c(NC3CC3)n2)c1)N1CCCCC1` [compound 654] it was 2.77*; in that of `CC(C)(C)C(=O)Cc1ccc(Nc2ncc(C(F)(F)F)c(NC3CC3)n2)cc1` [compound 655], 3.33*.
With `CC(=O)c1ccc(Nc2ncc(C(F)(F)F)c(NC3CC3)n2)cc1` [compound 656], the logP is given as 2.7*;.
Consider `CC(=O)c1cccc(Nc2ncc(C(F)(F)F)c(NC3CC3)n2)c1` [compound 657], for which the logP is reported as 2.57*;.
In the case of `O=C1NC(=O)C(c2ccc(Nc3ncc(C(F)(F)F)c(NC4CC4)n3)cc2)N1` (stereo not drawn) [compound 658], the logP is on record as 1.58*.
Turning to `CNC(=O)Oc1cccc(Nc2ncc(C(F)(F)F)c(NC3CC3)n2)c1` [compound 659], the logP was 2.06*;.
As for `COC(=O)Nc1cccc(Nc2ncc(C(F)(F)F)c(NC3CC3)n2)c1` [compound 660], the logP is listed as 2.16*;.

(Values after patent publication US20100081679A1, “DIAMINOPYRIMIDINES AS FUNGICIDES” (Bayer CropScience AG, priority 2007, published 2010).)
